Measurements taken from ChEMBL document CHEMBL1139552, “Naphthamidine urokinase plasminogen activator inhibitors with improved pharmacokinetic properties” (Bioorg Med Chem Lett, 2005).

How the values were obtained:
[1] = Bioavailability in rat (Sprague-Dawley) (dose 10 mg/kg); type: ADME, organism-based; settings: in vivo
[2] = Area under the curve time curve value in sprague dawley rat was determined at a dosage of 3 mg/kg; type: ADME, organism-based; parameters: dose 3 mg/kg; settings: in vivo
[3] = rat, in vivo, 3 mg/kg
Description: (§1) Clearance value in sprague dawley rat was determined at a dosage of 3 mg/kg

[4] = Volume distribution value in sprague dawley rat was determined at a dosage of 3 mg/kg; type: ADME, organism-based; parameters: dose 3 mg/kg; settings: in vivo
[5] = molecular target: Urokinase-type plasminogen activator (Homo sapiens, UniProt P00749)
Description: Binding affinity value against urokinase plasminogen activator

[6] = Binding affinity value against thrombin
in vivo [7] = settings: Sprague-Dawley, rat, 3 mg/kg
Description: as §1

[8] = Terminal half life value in sprague dawley rat was determined at a dosage of 3 mg/kg; type: ADME, organism-based; parameters: dose 3 mg/kg; settings: in vivo
Trypsin = Trypsin (Sus scrofa, UniProt P00761); assay: Binding affinity value against trypsin
Trypsin, sequence (P00761 whole entry): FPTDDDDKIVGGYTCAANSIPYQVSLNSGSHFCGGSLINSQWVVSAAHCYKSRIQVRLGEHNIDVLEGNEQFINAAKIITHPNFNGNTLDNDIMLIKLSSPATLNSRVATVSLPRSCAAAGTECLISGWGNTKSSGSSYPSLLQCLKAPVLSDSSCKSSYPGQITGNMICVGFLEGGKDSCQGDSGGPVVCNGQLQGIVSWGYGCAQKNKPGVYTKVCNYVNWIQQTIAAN

Kallikrein-1 = Kallikrein-1 (Homo sapiens, UniProt P06870)
Kallikrein-1, sequence (P06870 whole entry): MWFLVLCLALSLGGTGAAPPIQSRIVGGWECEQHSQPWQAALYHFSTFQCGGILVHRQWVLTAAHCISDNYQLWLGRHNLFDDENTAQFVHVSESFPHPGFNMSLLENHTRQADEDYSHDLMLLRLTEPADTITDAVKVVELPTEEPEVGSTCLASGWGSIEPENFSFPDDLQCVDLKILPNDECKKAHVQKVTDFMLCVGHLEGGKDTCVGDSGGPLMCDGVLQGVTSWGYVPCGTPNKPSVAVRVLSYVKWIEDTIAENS
Description: Binding affinity value against kallikrein

Plasminogen = Plasminogen (Homo sapiens, UniProt P00747); assay: Binding affinity value against plasmin
Plasminogen, sequence (P00747 97-580 limits assumed): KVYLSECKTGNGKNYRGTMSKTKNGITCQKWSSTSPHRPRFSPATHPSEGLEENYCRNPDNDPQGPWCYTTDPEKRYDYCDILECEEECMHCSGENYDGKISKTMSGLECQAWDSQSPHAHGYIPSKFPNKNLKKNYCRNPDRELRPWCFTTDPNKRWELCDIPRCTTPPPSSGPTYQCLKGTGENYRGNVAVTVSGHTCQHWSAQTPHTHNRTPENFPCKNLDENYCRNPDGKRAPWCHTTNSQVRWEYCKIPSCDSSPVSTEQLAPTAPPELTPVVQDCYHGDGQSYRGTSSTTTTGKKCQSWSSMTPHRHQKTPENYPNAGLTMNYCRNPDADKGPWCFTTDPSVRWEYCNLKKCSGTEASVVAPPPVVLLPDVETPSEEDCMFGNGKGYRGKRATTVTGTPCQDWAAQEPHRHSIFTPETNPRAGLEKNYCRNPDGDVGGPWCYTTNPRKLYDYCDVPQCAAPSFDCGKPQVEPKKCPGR
Plasminogen, sequence (P00747 581-810 limits assumed): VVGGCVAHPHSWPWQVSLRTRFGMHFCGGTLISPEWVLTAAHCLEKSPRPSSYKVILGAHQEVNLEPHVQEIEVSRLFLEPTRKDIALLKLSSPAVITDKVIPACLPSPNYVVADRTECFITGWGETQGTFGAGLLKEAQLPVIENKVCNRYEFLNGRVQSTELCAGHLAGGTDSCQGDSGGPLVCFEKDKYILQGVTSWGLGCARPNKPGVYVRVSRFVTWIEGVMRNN

[9] = molecular target: Tissue-type plasminogen activator (Homo sapiens, UniProt P00750); assay: Binding affinity value against Tissue plasminogen activator
Tissue-type plasminogen activator, sequence (P00750 whole entry): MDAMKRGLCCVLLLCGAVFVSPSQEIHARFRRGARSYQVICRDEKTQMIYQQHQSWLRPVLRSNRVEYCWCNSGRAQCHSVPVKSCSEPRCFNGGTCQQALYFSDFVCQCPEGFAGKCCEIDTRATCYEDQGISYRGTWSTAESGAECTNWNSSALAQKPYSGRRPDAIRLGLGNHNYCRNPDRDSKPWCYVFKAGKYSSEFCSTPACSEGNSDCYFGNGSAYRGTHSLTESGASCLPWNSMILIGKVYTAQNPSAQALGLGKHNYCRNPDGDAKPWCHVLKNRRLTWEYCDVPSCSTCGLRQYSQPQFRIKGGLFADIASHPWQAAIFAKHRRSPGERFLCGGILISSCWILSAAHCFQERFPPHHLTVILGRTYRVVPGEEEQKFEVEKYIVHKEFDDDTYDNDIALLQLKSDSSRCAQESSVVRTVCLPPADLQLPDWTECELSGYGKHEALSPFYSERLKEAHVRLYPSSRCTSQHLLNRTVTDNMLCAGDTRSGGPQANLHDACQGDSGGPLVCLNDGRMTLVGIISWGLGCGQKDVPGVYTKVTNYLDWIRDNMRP

[10] = Terminal half life value in sprague dawley rat was determined at a intravenous dosage of 10 mg/kg; type: ADME, organism-based; parameters: dose 10 mg/kg, route intravenous; settings: in vivo
[11] = Bioavailability in sprague dawley rat was determined at a dosage of 3 mg/kg; NT means not tested; type: ADME, organism-based; settings: in vivo
[12] = Volume distribution value in sprague dawley rat was determined at a intravenous dosage of 10 mg/kg; type: ADME, organism-based; parameters: dose 10 mg/kg, route intravenous; settings: in vivo
[13] = Area under the curve time curve value in sprague dawley rat was determined at a intravenous dosage of 10 mg/kg; type: ADME, organism-based; parameters: dose 10 mg/kg, route intravenous; settings: in vivo
in vivo [14] = settings: Sprague-Dawley, rat, iv, 10 mg/kg
Description: Clearance value in sprague dawley rat was determined at a intravenous dosage of 10 mg/kg

| Vd [4] [L/kg] | Ki [5] [nM] | AUC ([2]; Sprague-Dawley, read-out: AUC) [µM·h] | Ki [6] [nM] | clearance (in vivo [7]) [mL/min/kg] | half-life [8] [h] | Ki (Trypsin) [nM] | Ki (Kallikrein-1) [nM] | Ki (Plasminogen) [nM] | Ki [9] [nM] | CI [3] [mL/min/kg] | half-life [10] [h] | AUC [11] [µM·h] | SMILES | bioavailability [1] [%] | AUC [2] [µM·h] | CI ([3]; Sprague-Dawley) [mL/min/kg] | Vd [12] [L/kg] | AUC [13] [µM·h] | clearance (in vivo [14]) [mL/min/kg] |
| --- | --- | --- | --- | --- | --- | --- | --- | --- | --- | --- | --- | --- | --- | --- | --- | --- | --- | --- | --- |
| 14.3 | 622 | 2.72 | 503 | 35 | 4.71 | 334 | 379 | 239 | 30800 |  |  |  | N=C(N)c1ccc2cc(C3CC3c3ccccc3)cc(Br)c2c1 (stereo not drawn) | 17 |  |  |  |  |  |
| 18.6 |  | 0.51 | 2140 | 161 | 1.33 | 53 | 525 | 1050 | 4740 |  |  |  | CC(C)C1=NCCc2ccc(C3CC3c3ccc4cc(C(=N)N)ccc4c3)cc21 (stereo not drawn) | 26 |  |  |  |  |  |
| 10 | 5 | 0.23 | 48 | 352 | 0.33 | 54 | 54 | 243 | 5050 |  |  |  | N=C(N)c1ccc2cc(C3CC3c3ccccc3)cc(Nc3ncccn3)c2c1 (stereo not drawn) | 0 |  |  |  |  |  |
| 21.7 |  |  | 132 |  | 3 | 45 |  |  |  | 83 |  |  | N=C(N)c1ccc2cc(C(=O)Nc3ccccc3)cc(-c3ccoc3)c2c1 | 0 | 5 |  |  |  |  |
| 23 |  |  | 1890 |  |  | 720 | 2480 | 3520 | 69100 | 36 | 7.4 |  | N=C(N)c1ccc2cc(C3CC3c3ccccc3)ccc2c1 (stereo not drawn) | 30 | 11.6 |  |  |  |  |
| 2.9 |  | 0.69 |  | 121 | 0.28 |  |  |  |  |  |  |  | CC1c2cc(C3CC3c3ccc4cc(C(=N)N)ccc4c3)ccc2CCN1C (stereo not drawn) | 0 |  |  |  |  |  |
| 9.8 | 3180 | 1.14 |  | 113 | 1 |  |  |  |  |  |  |  | N=C(N)c1ccc2cc(CCc3ccccc3)ccc2c1 | 60 |  |  |  |  |  |
|  | 820 |  | 920 |  |  | 480 | 770 | 1350 | 13400 |  |  |  | N=C(N)c1ccc2cc(/C=C/c3ccccc3)cc(Br)c2c1 |  |  |  |  |  |  |
| 18.7 | 281 |  | 2660 | 205 | 1.05 | 64 | 992 | 1020 | 5590 |  |  | 0.6 | N=C(N)c1ccc2cc(C(=O)Nc3ccccc3)cc(Br)c2c1 | 0 |  |  |  |  |  |
|  |  |  | 5270 |  |  | 346 | 991 |  | 34600 |  |  |  | N=C(N)c1ccc2cc(/C=C/c3ccccc3)ccc2c1 |  |  |  |  |  |  |
| 8.5 |  |  | 5640 |  | 2.1 | 325 |  |  |  | 46.7 |  |  | N=C(N)c1ccc2cc(C(=O)Nc3ccccc3)ccc2c1 | 3 | 8.2 |  |  |  |  |
| 18 |  | 1.75 |  | 63.3 | 3.3 |  |  |  |  |  |  |  | N=C(N)c1ccc2cc(CCc3ccccc3)cc(Br)c2c1 | > 32 |  |  |  |  |  |
|  |  |  | 1790 |  |  | 30 | 640 | 1480 | 10400 |  |  |  | CC(C)C1=NCCc2ccc([C@H]3CC3c3ccc4cc(C(=N)N)ccc4c3)cc21 (stereo partly drawn) |  |  |  |  |  |  |
|  | 548 |  |  |  |  |  |  |  |  |  |  |  | CN1CCc2ccc(C3CC3c3ccc4cc(C(=N)N)ccc4c3)cc2C1C(C)(C)C (stereo not drawn) |  |  |  |  |  |  |
|  |  |  | 2120 |  |  | 165 | 336 | 955 | 7040 |  |  |  | N=C(N)c1ccc2cc(C3CC3c3ccc4c(c3)C(c3ccccc3)=NCC4)ccc2c1 (stereo not drawn) |  |  |  |  |  |  |

| SMILES | Vd [4] [L/kg] | Ki [5] [nM] | AUC ([2]; Sprague-Dawley, read-out: AUC) [µM·h] | Ki [6] [nM] | clearance (in vivo [7]) [mL/min/kg] | half-life [8] [h] | Ki (Trypsin) [nM] | Ki (Kallikrein-1) [nM] | Ki (Plasminogen) [nM] | Ki [9] [nM] | CI [3] [mL/min/kg] | half-life [10] [h] | AUC [11] [µM·h] | bioavailability [1] [%] | AUC [2] [µM·h] | CI ([3]; Sprague-Dawley) [mL/min/kg] | Vd [12] [L/kg] | AUC [13] [µM·h] | clearance (in vivo [14]) [mL/min/kg] |
| --- | --- | --- | --- | --- | --- | --- | --- | --- | --- | --- | --- | --- | --- | --- | --- | --- | --- | --- | --- |
| N=C(N)c1ccc2cc(CCc3ccccc3)cc(-c3ccoc3)c2c1 | 1.53 | 731 |  |  |  |  |  |  |  |  |  |  |  | 18 | 17.6 | 55.2 |  |  |  |
| N=C(N)c1ccc2cc(C(=O)Nc3ccccc3)cc(Nc3ncccn3)c2c1 | 37.1 | 200 | 0.14 | 170 | 715 | 0.6 | 40 |  |  |  |  |  |  | 0 |  |  |  |  |  |
| CC(C)Oc1cccc(C2CC2c2ccc3cc(C(=N)N)ccc3c2)c1 (stereo not drawn) | 19.3 |  | 3.48 | 1100 | 37.7 | 5.91 | 141 | 1400 | 2450 | 21900 |  |  |  | 23 |  |  |  |  |  |
| N=C(N)c1ccc2cc(C3CC3c3ccc4c(c3)C(C3CCCCC3)=NCC4)ccc2c1 (stereo not drawn) | 4.5 |  | 0.57 | 1140 | 192 | 0.27 | 428 | 206 | 594 | 4020 |  |  |  | 22 |  |  |  |  |  |
| N=C(N)c1ccc2cc(C3CC3c3ccccc3)cc(-c3ccoc3)c2c1 (stereo not drawn) | 2.4 |  |  |  |  |  |  |  |  |  |  |  |  | 10 | 14.5 | 70 |  |  |  |
| CC(C)C1c2cc(C3CC3c3ccc4cc(C(=N)N)ccc4c3)ccc2CCN1C (stereo not drawn) | 10.3 |  | 0.37 | 1800 | 216 | 0.55 | 90 | 576 | 1300 | 6230 |  |  |  | 55 |  |  |  |  |  |
| N=C(N)c1ccc2cc(/C=C/c3ccccc3)cc(-c3ccoc3)c2c1 |  | 168 |  | 237 | 21.7 | 0.62 | 96 | 83 | 134 | 4460 |  |  |  | 0 |  |  | 1.2 | 5.8 |  |
| N=C(N)c1ccc2cc(CCc3ccccc3)cc(Nc3ncccn3)c2c1 | 13.6 |  |  | 191 |  | 2 | 167 | 156 | 570 | 5790 |  |  |  | 0 | 4.2 | 78.3 |  |  |  |
| N=C(N)c1ccc2cc(/C=C/c3ccccc3)cc(Nc3ncccn3)c2c1 |  | 10 |  | 395 |  |  | 84 | 42 | 277 | > 50000 |  |  |  |  |  |  |  |  |  |
| CN1CCc2ccc(C3CC3c3ccc4cc(C(=N)N)ccc4c3)cc2C1C1CCCCC1 (stereo not drawn) | 18.7 |  | 0.53 | 996 | 142 | 1.53 | 31 | 295 | 811 | 18900 |  |  |  | 27 |  |  |  |  |  |
| CC(C)C1=NCCc2cc(C3CC3c3ccc4cc(C(=N)N)ccc4c3)ccc21 (stereo not drawn) |  |  |  |  |  | 0.33 |  |  |  |  |  |  |  | 0 |  |  | 7.9 | 0.27 | 273 |
